According to US20160184322A1 (priority 2013, published 2016):
Like-named read-outs stand apart in the source and are kept apart here.

Assays:
[1] = tested on: SH-SY5Y cells; assay: Lactate dehydrogenase release after oxygen and glucose deprivation (OGD); assay type: cell-based; settings: for most effective concentrations to attenuate OGD-induced LDH release: both the 0 and 24 hour post-OGD time points
[2] = tested on: glutathione reductase; assay: Glutathione reductase assay in rat model of mTBI (three repeated impacts); assay type: in vivo, Sprague Dawley rats; settings: 16 mg/kg intraperitoneal 15 minutes after last impact; tissue 24 hours after drug; one-way ANOVA p=0.675
Description: Glutathione reductase assay was used to measure the antioxidant capacity of PRV-001. Glutathione reductase (GR) is an enzyme which catalyzes the reduction of glutathione (GSSR) to reduced glutathione (GSH). GSH is an important intracellular antioxidant that reacts with oxygen free radicals which are harmful to the cell. High GSH to GSSR ratio is important to cellular survival and GR catalyzes the reduction, therefore becoming an important indicator of antioxidant capacity.
Sprague Dawley rats were obtained from Charles River Laboratories and subjected to three repeated impacts spaced 20 minutes apart. Prior to surgery, animals were anesthetized via inhalation with an initial induction with 5% isofluorane with oxygen at a rate of […] a Matrix 3000 Isofluorane Vaporizer (Midmark, Versailles, Ohio). […] The animal's scalp was shaved and cleaned with a 70% isopropanol solution and 10% betadine solution (Med-Vet International, Mettawa, Ill.). During the surgery, anesthesia was maintained at 2.5% isofluorane with oxygen at a rate of 500-1000 mL/min. The animal's head was then secured in a stereotaxic apparatus (David Kopf Instruments, Tujanga, Calif.) and a medial incision was performed and the scalp pulled back with bulldogs clips over the right frontal and parietal bone. […]

[3] = tested on: SH-SY5Y cells; assay: LDH release after t-BOOH-induced oxidative stress; assay type: cell-based; settings: 25 μM t-BOOH 6 hours, 24 hours pre-treatment 1-80 μM; for LDH release following exposure to oxidative stress, group differences: ANOVA p=0.214
[4] = tested on: rats suffering from TBI; settings: cited from earlier work; for brain water content (measure of edema): 72 hours post-injury, ent-Prog 16 mg/kg
[5] = tested on: glutathione reductase; settings: 72 hours post-injury, compared to all other groups, p<0.01; cited from earlier work
[6] = target: T1, classical progesterone receptor (PR) (Homo sapiens, UniProt P06401); settings: cited from earlier work
T1 sequence (P06401 1-933): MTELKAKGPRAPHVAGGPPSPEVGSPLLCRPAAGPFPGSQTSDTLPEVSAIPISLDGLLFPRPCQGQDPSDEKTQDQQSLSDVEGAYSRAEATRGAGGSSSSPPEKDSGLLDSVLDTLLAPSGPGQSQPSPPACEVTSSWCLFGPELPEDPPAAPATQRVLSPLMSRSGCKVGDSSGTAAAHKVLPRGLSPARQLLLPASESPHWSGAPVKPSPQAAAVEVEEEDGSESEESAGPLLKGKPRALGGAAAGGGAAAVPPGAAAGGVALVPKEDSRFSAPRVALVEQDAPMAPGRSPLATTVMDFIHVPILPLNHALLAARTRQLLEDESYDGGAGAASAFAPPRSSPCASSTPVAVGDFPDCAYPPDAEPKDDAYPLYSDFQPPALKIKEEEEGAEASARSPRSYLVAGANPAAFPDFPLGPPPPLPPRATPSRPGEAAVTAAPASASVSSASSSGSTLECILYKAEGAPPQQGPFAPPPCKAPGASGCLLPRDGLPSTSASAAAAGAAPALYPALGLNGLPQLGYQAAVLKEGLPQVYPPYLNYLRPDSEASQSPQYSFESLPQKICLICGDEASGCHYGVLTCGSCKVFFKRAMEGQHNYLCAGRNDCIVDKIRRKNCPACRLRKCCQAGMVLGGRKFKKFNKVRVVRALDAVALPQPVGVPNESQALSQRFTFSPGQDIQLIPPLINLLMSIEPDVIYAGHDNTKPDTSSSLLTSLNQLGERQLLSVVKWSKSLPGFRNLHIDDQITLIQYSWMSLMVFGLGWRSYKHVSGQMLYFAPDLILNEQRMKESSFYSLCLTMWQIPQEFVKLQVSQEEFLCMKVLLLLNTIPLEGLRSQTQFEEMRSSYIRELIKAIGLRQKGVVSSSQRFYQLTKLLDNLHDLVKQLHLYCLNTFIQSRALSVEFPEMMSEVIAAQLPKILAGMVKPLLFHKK

[7] = tested on: rodents following injury; settings: cited from earlier work; for most beneficial concentration for reducing edema, inflammation, oxidative stress and cell death within the penumbral region: IP, moderate to severe TBI model, 72 hours following injury
[8] = tested on: rats that have suffered a concussion; assay: Morris Water Maze latency to platform in mTBI (concussion) model (FIG. 8); assay type: in vivo, rat; settings: vs vehicle-injured rats
[9] = tested on: moderate to severe TBI patients; settings: cited from earlier work
[10] = tested on: severe TBI patients; settings: six months; cited from earlier work
[11] = males; cited from earlier work

## CC(=O)[C@@H]1CC[C@@H]2[C@H]3CCC4=CC(=O)CC[C@@]4(C)[C@@H]3CC[C@]21C [ent-Prog, ent-progesterone]
[1]
  LDH release compared to control cells that did not undergo OGD: significantly higher
  LDH release compared to other treated groups: significant reduction
  LDH release compared to untreated cells exposed to OGD: significant reduction
  promoting cellular survival following oxygen and glucose deprivation, PRV-001 compared with progesterone: equally effective
  most effective concentrations to attenuate OGD-induced LDH release: 5 µM and 10 µM
[2]
  glutathione reductase activity (Δ Absorbance 340 nm/min), difference between groups: failed to reveal a significant difference
[3]
  oxidative stress-induced cellular damage and death (LDH release), trend: trend towards amelioration
  LDH release following exposure to oxidative stress, group differences: significant group differences were not observed
[4]
  brain water content (measure of edema): normalizes brain water content
[4]; moderate to severe TBI
  reduction of moderate to severe brain injury-induced edema, compared with Prog: equal efficacy to Prog
[5]
  anti-oxidant activity of glutathione reductase: significantly increases
[6]
  activation of the classical progesterone receptor (PR): does not activate
[7]
  most beneficial concentration for reducing edema, inflammation, oxidative stress and cell death within the penumbral region: 16 mg/kg

## CC(=O)[C@H]1CC[C@H]2[C@@H]3CC[C@H]4C[C@H](O)CC[C@]4(C)[C@H]3CC[C@]12C [allopregnanolone]
[4]
  brain water content (measure of edema): normalizes brain water content
[7]; following injury
  presence of factors of cell death (caspase-3) and gliosis (GFAP): decreased

## CC(=O)[C@H]1CC[C@H]2[C@@H]3CCC4=CC(=O)CC[C@]4(C)[C@H]3CC[C@]12C [Prog, progesterone]
[8]; post-acutely (15 minutes post)
  latency to platform (Morris Water Maze): decreases latency to platform
[8]; prophylactically (15 minutes prior)
  latency to platform (Morris Water Maze): decreases latency to platform
[1]
  LDH release compared to other treated groups: significant reduction
  promoting cellular survival following oxygen and glucose deprivation, PRV-001 compared with progesterone: equally effective
  most effective concentrations to attenuate OGD-induced LDH release: 5 µM and 10 µM
[1]; 0 h post-OGD, 1 μM progesterone vs 80 uM progesterone
  LDH release compared to other treated groups: significant reduction
[1]; 0 h post-OGD, 10 μM progesterone vs 80 μM progesterone
  LDH release compared to other treated groups: significant reduction
[1]; 0 h post-OGD, 20 μM and 80 μM progesterone
  LDH release compared to control cells that did not undergo OGD: significantly higher
[1]; 0 h post-OGD, 20 μM progesterone vs 80 μM progesterone
  LDH release compared to other treated groups: significant reduction
[1]; 0 h post-OGD, 1, 5, 10 and 40 μM progesterone
  LDH release compared to control cells not exposed to OGD: not significantly different
[1]; 0 h post-OGD, all progesterone concentrations except 80 μM
  LDH release compared to untreated cells exposed to OGD: significant reduction
[1]; 24 hours post-OGD, 1 μM and 40 μM progesterone
  LDH release compared to control cells not exposed to OGD: increased
[1]; 24 hours post-OGD, 10 μM progesterone vs 40 μM progesterone
  LDH release compared to other treated groups: significant reduction
[1]; 24 hours post-OGD, 40 μM progesterone
  LDH release compared to untreated cells exposed to OGD: except for those treated with 40 μM progesterone
[1]; 24 hours post-OGD, 80 μM progesterone vs 40 μM progesterone
  LDH release compared to other treated groups: significant reduction
[1]; 24 hours post-OGD, 5, 10, 20 and 80 μM progesterone
  LDH release compared to control cells not exposed to OGD: not significantly different
[1]; 24 hours post-OGD, all progesterone groups except 40 μM
  LDH release compared to untreated cells exposed to OGD: significant reduction
[2]
  glutathione reductase activity (Δ Absorbance 340 nm/min), difference between groups: failed to reveal a significant difference
[3]
  oxidative stress-induced cellular damage and death (LDH release), trend: trend towards amelioration
  LDH release following exposure to oxidative stress, group differences: significant group differences were not observed
[4]
  brain water content (measure of edema): normalizes brain water content
[9]; moderate TBI patients
  30 days post-injury outcomes (Glasgow Outcome Scale-Extended and Disability Rating Scale): better outcomes
[9]; moderate to severe TBI patients, 72 hours of continuous intravenous Prog
  reduction in mortality: 50%
[9]; patients with severe brain injuries
  30 days post-injury outcomes (Glasgow Outcome Scale-Extended and Disability Rating Scale): little measurable difference
[10]
  neurological outcomes long-term: better neurological outcomes
[7]
  most beneficial concentration for reducing edema, inflammation, oxidative stress and cell death within the penumbral region: 16 mg/kg
[7]; both rodent sexes following injury
  edema: effectively attenuates
[7]; following injury
  inflammatory factors (TNF-a and IL-10): inhibiting
  presence of factors of cell death (caspase-3) and gliosis (GFAP): decreased
[7]; rats following injury
  Neurological Severity Score (motor and cognitive functioning): significant improvements
[11]
  conversion of testosterone to dihydrotestosterone: inhibits
  size of reproductive organs: reduces
  spermatogenesis: suppresses
